# Results as given in patent publication US20180161276A1, “TEMPERATURE-RESPONSIVE COMPOSITION, METHOD FOR FABRICATING, AND USE THEREOF” (NATIONAL TSING HUA UNIVERSITY, priority 2016, published 2018).
# Target: hemoglobin (Hb) (Homo sapiens, UniProt P68871+P69905)
# Experiment: Anti-degradation ability of produced nitric oxide in the presence of hemoglobin
# Assay type: physicochemical
# Details: in the presence of hemoglobin compared to absence of hemoglobin
# Text: As mentioned above, the half-life of nitric oxide is quite short due to the reaction between nitric oxide and erythrocyte in plasma or ceruloplasmin. Please refer to FIG. 6A and FIG. 6B.
# However, the half-life of nitric oxide, which is produced by using the temperature-responsive composition of the 1st embodiment in the present disclosure in the presence of hemoglobin, only has a degradation of 40% as shown in FIG. 6B. That is, it proves that applying the temperature-responsive composition of the present disclosure can extend the half-life of the produced nitric oxide.
# Sequence of hemoglobin (Hb) (P69905 2-142 limits assumed): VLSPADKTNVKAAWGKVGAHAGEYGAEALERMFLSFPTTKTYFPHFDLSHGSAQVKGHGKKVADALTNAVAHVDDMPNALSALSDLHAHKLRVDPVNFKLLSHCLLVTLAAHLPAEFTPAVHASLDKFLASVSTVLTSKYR
# Sequence of hemoglobin (Hb) (P68871 2-147 limits assumed): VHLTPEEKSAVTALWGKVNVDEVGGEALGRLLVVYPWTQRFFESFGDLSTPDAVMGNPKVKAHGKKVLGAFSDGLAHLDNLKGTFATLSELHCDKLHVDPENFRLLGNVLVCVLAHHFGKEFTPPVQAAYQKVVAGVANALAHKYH
smiles,measurement,value
NCCN(CCN)/[N+]([O-])=N/O [diethylenetriaine-NONOate],degradation of the half-life of the produced nitric oxide,85%
